Assay results as given in patent US20200407717A1, “METHODS OF MODULATING ANTISENSE ACTIVITY” (Ionis Pharmaceuticals, Inc., priority 2018, published 2020).
e = 2'-O-(2-methoxyethyl) (MOE); d = 2'-deoxy (DNA)

What was measured:
EGF-EGFR signaling = experiment: EGFR signaling western blot (p-EGFR, p-ERK), A431 cells; format: cell-based; conditions: 2 μM for 16 hours
Summary of the method: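 A431 cells incubated 16 h with PS-ASO (2 μM where stated) or without PS-ASO, then EGF-treated and put through a pulse-chase protocol. Lysates resolved by SDS-PAGE and sequentially immunoblotted for phospho- and total EGFR and ERK.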

Malat1 RNA = experiment: Antisense activity by RT-qPCR, Malat1, A431 cells; format: cell-based
Experimental: A431 cells were grown at 10,000 cells per well and pre-treated with a variety of growth factors to determine if the addition of exogenous growth factors affects antisense activity or uptake of modified antisense oligonucleotides in a cell. The growth factors used were EGF, insulin growth factor (IGF), transforming growth factor (TGF), […] (VEGF), hepatocyte growth factor (HGF), platelet growth factor (PGF) and fibroblasts growth factor (FGF). To test antisense activity, cells were treated for 4 hours with a growth factor or vehicle alone, and then treated with compound no. 25690 (complementary to Drosha), compound no. 395254 (complementary to Malat1), or vehicle alone. RNA was isolated from the cells and Drosha or Malat1 RNA levels were measured by RT-qPCR. Human primer probe set 13816 (forward sequence […], designated herein as SEQ ID NO: 3; reverse sequence […], designated herein as SEQ ID NO: 4; probe sequence […], designated herein as SEQ ID NO: 5) was used to measure Drosha mRNA levels and primer probe set RTS2736 (forward sequence […], designated herein as SEQ ID NO: 6; reverse sequence […], designated herein as SEQ ID NO: 7; probe sequence TGCCACATCGCCACCCCGT, designated herein as SEQ ID NO: 8) was used to measure Malat1 RNA levels. Drosha and Malat1 RNA levels were normalized to total RNA content, as measured by RIBOGREEN®. Results are presented in the tables below as normalized RNA levels, relative to untreated control cells.
A431 cells were treated with EGF or TGF at 200 ng/mL in the presence or absence of 1 μM of the EGFR tyrosine kinase inhibitor PD174265. The cells were then treated with compound no. 25690 or compound no. 395254 as in Example 8. Total RNA was isolated and analyzed by RT-qPCR, as in Example 8.
Following siRNA treatment, cells were treated with compound no. 25690 or compound no. 395254 in the presence or absence of EGF. 16 hours after treatment with a PS-ASO with or without EGF, cells were harvested, and RNA levels were analyzed via RT-qPCR as in Example 8.

## GGCATATGCAGATAATGTTC (sugars from the 5' end e5 d10 e5, all phosphorothioate, methylation of C not given here) [compound 395254]
EGF-EGFR signaling
  EGFR signaling: not be impacted
Malat1 RNA; 2.0 nM, Control
  Malat1 RNA (% Control): 100.0 % Control
Malat1 RNA; 2.0 nM, Control Luciferase siRNA
  Malat1 RNA (% Control): 100.0 % Control
Malat1 RNA; 2.0 nM, Control Luciferase siRNA, Table 27
  Malat1 RNA (% Control): 100 % Control
Malat1 RNA; 2.0 nM, Control luciferase + EGF
  Malat1 RNA (% Control): 100 % Control
Malat1 RNA; 2.0 nM, Control, Table 21
  Malat1 RNA (% Control): 100.0 % Control
Malat1 RNA; 2.0 nM, EGF
  Malat1 RNA (% Control): 100.0 % Control
Malat1 RNA; 2.0 nM, EGFR siRNA-1
  Malat1 RNA (% Control): 100.0 % Control
Malat1 RNA; 2.0 nM, EGFR siRNA-2
  Malat1 RNA (% Control): 100.0 % Control
Malat1 RNA; 2.0 nM, EGFR siRNA-2 + EGF
  Malat1 RNA (% Control): 100 % Control
Malat1 RNA; 2.0 nM, EGFR siRNA-2, Table 27
  Malat1 RNA (% Control): 100 % Control
Malat1 RNA; 2.0 nM, TGF
  Malat1 RNA (% Control): 100.0 % Control
Malat1 RNA; 2.0 nM, TGF+PD174265
  Malat1 RNA (% Control): 100.0 % Control
Malat1 RNA; 2.0 nM, TGF, Table 21
  Malat1 RNA (% Control): 100.0 % Control
Malat1 RNA; 3.9 nM, Control
  Malat1 RNA (% Control): 109.0 % Control
Malat1 RNA; 3.9 nM, Control Luciferase siRNA
  Malat1 RNA (% Control): 72.7 % Control
Malat1 RNA; 3.9 nM, Control Luciferase siRNA, Table 27
  Malat1 RNA (% Control): 110.2 % Control
Malat1 RNA; 3.9 nM, Control luciferase + EGF
  Malat1 RNA (% Control): 108.2 % Control
Malat1 RNA; 3.9 nM, Control, Table 21
  Malat1 RNA (% Control): 110.2 % Control
Malat1 RNA; 3.9 nM, EGF
  Malat1 RNA (% Control): 76.0 % Control
Malat1 RNA; 3.9 nM, EGFR siRNA-1
  Malat1 RNA (% Control): 108.4 % Control
Malat1 RNA; 3.9 nM, EGFR siRNA-2
  Malat1 RNA (% Control): 90.4 % Control
Malat1 RNA; 3.9 nM, EGFR siRNA-2 + EGF
  Malat1 RNA (% Control): 108.2 % Control
Malat1 RNA; 3.9 nM, EGFR siRNA-2, Table 27
  Malat1 RNA (% Control): 105.2 % Control
Malat1 RNA; 3.9 nM, TGF
  Malat1 RNA (% Control): 99.9 % Control
Malat1 RNA; 3.9 nM, TGF+PD174265
  Malat1 RNA (% Control): 108.2 % Control
Malat1 RNA; 3.9 nM, TGF, Table 21
  Malat1 RNA (% Control): 105.2 % Control
Malat1 RNA; 7.8 nM, Control
  Malat1 RNA (% Control): 127.0 % Control
Malat1 RNA; 7.8 nM, Control Luciferase siRNA
  Malat1 RNA (% Control): 81.9 % Control
Malat1 RNA; 7.8 nM, Control Luciferase siRNA, Table 27
  Malat1 RNA (% Control): 99.3 % Control
Malat1 RNA; 7.8 nM, Control luciferase + EGF
  Malat1 RNA (% Control): 91.2 % Control
Malat1 RNA; 7.8 nM, Control, Table 21
  Malat1 RNA (% Control): 99.3 % Control
Malat1 RNA; 7.8 nM, EGF
  Malat1 RNA (% Control): 98.1 % Control
Malat1 RNA; 7.8 nM, EGFR siRNA-1
  Malat1 RNA (% Control): 103.1 % Control
Malat1 RNA; 7.8 nM, EGFR siRNA-2
  Malat1 RNA (% Control): 85.1 % Control
Malat1 RNA; 7.8 nM, EGFR siRNA-2 + EGF
  Malat1 RNA (% Control): 99.2 % Control
Malat1 RNA; 7.8 nM, EGFR siRNA-2, Table 27
  Malat1 RNA (% Control): 105.2 % Control
Malat1 RNA; 7.8 nM, TGF
  Malat1 RNA (% Control): 101.8 % Control
Malat1 RNA; 7.8 nM, TGF+PD174265
  Malat1 RNA (% Control): 91.2 % Control
Malat1 RNA; 7.8 nM, TGF, Table 21
  Malat1 RNA (% Control): 105.2 % Control
Malat1 RNA; 15.6 nM, Control
  Malat1 RNA (% Control): 125.6 % Control
Malat1 RNA; 15.6 nM, Control Luciferase siRNA
  Malat1 RNA (% Control): 61.0 % Control
Malat1 RNA; 15.6 nM, Control Luciferase siRNA, Table 27
  Malat1 RNA (% Control): 87.2 % Control
Malat1 RNA; 15.6 nM, Control luciferase + EGF
  Malat1 RNA (% Control): 67.2 % Control
Malat1 RNA; 15.6 nM, Control, Table 21
  Malat1 RNA (% Control): 77.2 % Control
Malat1 RNA; 15.6 nM, EGF
  Malat1 RNA (% Control): 96.4 % Control
Malat1 RNA; 15.6 nM, EGFR siRNA-1
  Malat1 RNA (% Control): 98.4 % Control
Malat1 RNA; 15.6 nM, EGFR siRNA-2
  Malat1 RNA (% Control): 82.5 % Control
Malat1 RNA; 15.6 nM, EGFR siRNA-2 + EGF
  Malat1 RNA (% Control): 99.2 % Control
Malat1 RNA; 15.6 nM, EGFR siRNA-2, Table 27
  Malat1 RNA (% Control): 97.2 % Control
Malat1 RNA; 15.6 nM, TGF
  Malat1 RNA (% Control): 93.2 % Control
Malat1 RNA; 15.6 nM, TGF+PD174265
  Malat1 RNA (% Control): 77.2 % Control
Malat1 RNA; 15.6 nM, TGF, Table 21
  Malat1 RNA (% Control): 107.2 % Control
Malat1 RNA; 31.3 nM, Control
  Malat1 RNA (% Control): 120.2 % Control
Malat1 RNA; 31.3 nM, Control Luciferase siRNA
  Malat1 RNA (% Control): 47.0 % Control
Malat1 RNA; 31.3 nM, Control Luciferase siRNA, Table 27
  Malat1 RNA (% Control): 76.3 % Control
Malat1 RNA; 31.3 nM, Control luciferase + EGF
  Malat1 RNA (% Control): 58.7 % Control
Malat1 RNA; 31.3 nM, Control, Table 21
  Malat1 RNA (% Control): 66.3 % Control
Malat1 RNA; 31.3 nM, EGF
  Malat1 RNA (% Control): 111.9 % Control
Malat1 RNA; 31.3 nM, EGFR siRNA-1
  Malat1 RNA (% Control): 67.4 % Control
Malat1 RNA; 31.3 nM, EGFR siRNA-2
  Malat1 RNA (% Control): 57.7 % Control
Malat1 RNA; 31.3 nM, EGFR siRNA-2 + EGF
  Malat1 RNA (% Control): 114.0 % Control
Malat1 RNA; 31.3 nM, EGFR siRNA-2, Table 27
  Malat1 RNA (% Control): 95.9 % Control
Malat1 RNA; 31.3 nM, TGF
  Malat1 RNA (% Control): 109.8 % Control
Malat1 RNA; 31.3 nM, TGF+PD174265
  Malat1 RNA (% Control): 68.7 % Control
Malat1 RNA; 31.3 nM, TGF, Table 21
  Malat1 RNA (% Control): 55.9 % Control
Malat1 RNA; 62.5 nM, Control
  Malat1 RNA (% Control): 109.6 % Control
Malat1 RNA; 62.5 nM, Control Luciferase siRNA
  Malat1 RNA (% Control): 33.2 % Control
Malat1 RNA; 62.5 nM, Control Luciferase siRNA, Table 27
  Malat1 RNA (% Control): 67.2 % Control
Malat1 RNA; 62.5 nM, Control luciferase + EGF
  Malat1 RNA (% Control): 54.2 % Control
Malat1 RNA; 62.5 nM, Control, Table 21
  Malat1 RNA (% Control): 57.2 % Control
Malat1 RNA; 62.5 nM, EGF
  Malat1 RNA (% Control): 85.9 % Control
Malat1 RNA; 62.5 nM, EGFR siRNA-1
  Malat1 RNA (% Control): 45.0 % Control
Malat1 RNA; 62.5 nM, EGFR siRNA-2
  Malat1 RNA (% Control): 43.6 % Control
Malat1 RNA; 62.5 nM, EGFR siRNA-2 + EGF
  Malat1 RNA (% Control): 79.7 % Control
Malat1 RNA; 62.5 nM, EGFR siRNA-2, Table 27
  Malat1 RNA (% Control): 77.2 % Control
Malat1 RNA; 62.5 nM, TGF
  Malat1 RNA (% Control): 91.4 % Control
Malat1 RNA; 62.5 nM, TGF+PD174265
  Malat1 RNA (% Control): 54.2 % Control
Malat1 RNA; 62.5 nM, TGF, Table 21
  Malat1 RNA (% Control): 47.2 % Control
Malat1 RNA; 125 nM, Control
  Malat1 RNA (% Control): 131.6 % Control
Malat1 RNA; 125 nM, Control Luciferase siRNA
  Malat1 RNA (% Control): 18.9 % Control
Malat1 RNA; 125 nM, Control Luciferase siRNA, Table 27
  Malat1 RNA (% Control): 44 % Control
Malat1 RNA; 125 nM, Control luciferase + EGF
  Malat1 RNA (% Control): 37.0 % Control
Malat1 RNA; 125 nM, Control, Table 21
  Malat1 RNA (% Control): 44.0 % Control
Malat1 RNA; 125 nM, EGF
  Malat1 RNA (% Control): 62.3 % Control
